In PubChem BioAssay (NCI):
Values joined by “and” are separate entries in the source; they are usually repeats but may differ in a detail not shown here. Equal entries are not always repeated.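 Dose response: 5 concentrations. Exposure: 48 h. Format: 96-well plates. Endpoint: linear interpolation; highest concentration if not reached. At the GI50, growth is halved. TGI is the concentration that stops growth completely.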

Assays:
Experiment in all cases: NCI anticancer screen, dose series, 48 h
HCT-116 colon = tested on: HCT-116 colon
MALME-3M melanoma = tested on: MALME-3M melanoma
MDA-MB-231 breast = tested on: MDA-MB-231 breast
OVCAR-4 ovarian = tested on: OVCAR-4 ovarian
OVCAR-5 ovarian = tested on: OVCAR-5 ovarian
RXF 393 renal = tested on: RXF 393 renal
SF-268 CNS = tested on: SF-268 CNS
SK-OV-3 ovarian = tested on: SK-OV-3 ovarian
UACC-62 melanoma = tested on: UACC-62 melanoma
UO-31 renal = tested on: UO-31 renal

SMILES	GI50 (HCT-116 colon)	TGI (HCT-116 colon)	GI50 (MALME-3M melanoma)	TGI (MALME-3M melanoma)	GI50 (MDA-MB-231 breast)	TGI (MDA-MB-231 breast)	GI50 (OVCAR-4 ovarian)	TGI (OVCAR-4 ovarian)	GI50 (OVCAR-5 ovarian)	TGI (OVCAR-5 ovarian)	GI50 (RXF 393 renal)	TGI (RXF 393 renal)	GI50 (SF-268 CNS)	TGI (SF-268 CNS)	GI50 (SK-OV-3 ovarian)	TGI (SK-OV-3 ovarian)	GI50 (UACC-62 melanoma)	TGI (UACC-62 melanoma)	GI50 (UO-31 renal)	TGI (UO-31 renal)
CN(C)c1ccc2nc3ccc(=[N+](C)C)cc-3sc2c1	0.29 µM and 0.373 µM	2.45 µM and 5.76 µM	0.422 µM and 0.848 µM	1.77 µM and 3.57 µM	0.512 µM and 1.36 µM	12.9 µM and 16.9 µM	0.192 µM and 0.295 µM	1.25 µM and 3.79 µM	0.599 µM and 0.642 µM	11.3 µM and 17.3 µM	2.73 µM and 10.1 µM	18 µM and 27.9 µM	0.446 µM and 1.08 µM	15.4 µM and 15.1 µM	2.63 µM and 5.11 µM	12.6 µM and 25.9 µM	0.808 µM and 2.64 µM	2.61 µM and 15.2 µM	3.65 µM and 6.28 µM	19.8 µM and 29.1 µM
O=C1c2c(O)cccc2C(C2OC(CO)C(O)C(O)C2O)c2cc(CO)cc(O)c21 (centres undefined)	–	> 100 µM	–	> 100 µM	–	> 100 µM	–	> 100 µM	–	> 100 µM	–	> 100 µM	–	> 100 µM	–	> 100 µM	–	> 100 µM	–	> 100 µM
COC(=O)c1cc2ccc(OC(C)=O)c(OC(C)=O)c2cn1	–	32.7 µM	11.5 µM	24 µM	17.7 µM	7.12 µM and 42.9 µM	–	30.6 µM	–	34.2 µM	–	33.4 µM	–	53 µM	–	52.4 µM	16.3 µM	5.8 µM and 35.1 µM	–	30 µM
O=c1nc2oc3ccc4ccccc4c3cc-2s1	1.14 µM	> 100 µM	0.743 µM	> 100 µM	12.4 µM	> 100 µM	58.4 µM	> 100 µM	> 100 µM	> 100 µM	1.83 µM	21.6 µM	7.97 µM	> 100 µM	15.1 µM	> 100 µM	1.22 µM	> 100 µM	33.7 µM	> 100 µM
C=C(CO[Si](C)(C)C(C)(C)C)C(C)=O	–	27 µM	–	39.7 µM	–	46.6 µM	–	44.4 µM	–	86.2 µM	–	29 µM	–	> 74.6 µM	–	> 100 µM	–	30.5 µM	–	> 66 µM
O=C(Nc1ccc(Cl)cc1)Nc1ccc(Nc2nncc3ccccc23)cc1	2.46 µM	12 µM	3.94 µM	16.5 µM	3.4 µM	15.9 µM	1.97 µM	8.17 µM	4.15 µM	34.3 µM	4.28 µM	21.4 µM	3.19 µM	28.1 µM	3.05 µM	17.7 µM	0.958 µM	7.97 µM	1.9 µM	15.8 µM
COc1c(Cl)cc(NC(=S)C#N)cc1Cl	–	31.6 µM	–	59.6 µM	–	36.1 µM	–	97.9 µM	–	> 100 µM	–	> 81.4 µM	–	> 89.9 µM	–	> 74.7 µM	–	30.8 µM	–	56.1 µM
CN(C)c1ccc2c(c1)OC(N)=C(C#N)C2c1ccc2c(c1)CCO2 (centres undefined)	< 0.0201 µM	8.52 µM	14.9 µM	59.7 µM	0.419 µM	28.6 µM	0.704 µM	> 100 µM	1.13 µM	> 100 µM	0.255 µM	–	0.524 µM	97.4 µM	0.224 µM	> 73.9 µM	< 0.0205 µM	21.9 µM	0.362 µM	35.4 µM
COc1ccc(/C=C2\CCCC3=C2NC(N)=NC3c2ccc(OC)c(OC)c2)cc1OC (centres undefined)	1.28 µM	8.64 µM	23.7 µM	> 70.2 µM	13.2 µM	> 100 µM	5.2 µM	> 100 µM	> 54.5 µM	> 100 µM	3.96 µM	24.2 µM	6.9 µM	> 100 µM	13.4 µM	> 100 µM	10.9 µM	> 100 µM	11.8 µM	> 57.1 µM
NC(=S)N/N=C/c1ncccc1N	1.16 µM	> 33.7 µM	3 µM	> 90.5 µM	3.79 µM	> 100 µM	3.57 µM	> 50 µM	5.98 µM	> 100 µM	0.489 µM	> 47.5 µM	0.731 µM	51.9 µM and > 8.29 µM	3.24 µM	51.3 µM and > 10 µM	0.338 µM	7.67 µM and > 10 µM	0.293 µM	3.69 µM and 1.41 µM
CC[C@H](CO)Nc1nc(NCc2ccccc2)n2ncc(C(C)C)c2n1	0.51 µM	15 µM	2.6 µM	6.99 µM	2.37 µM	9.47 µM	2.58 µM	37 µM	1.85 µM	15 µM	0.25 µM	0.792 µM	1.82 µM	7.2 µM	5.55 µM	40.2 µM	1.37 µM	5.5 µM	1.59 µM	> 100 µM
CCCCN(CCCC)c1ccc(C(=N)c2ccc(N(CCCC)CCCC)cc2)cc1	0.339 µM	1.31 µM	0.508 µM	2.12 µM	0.759 µM	2.06 µM	0.373 µM	1.4 µM	0.88 µM	2.31 µM	0.545 µM	1.62 µM	0.679 µM	1.93 µM	1.19 µM	2.47 µM	0.369 µM	1.5 µM	0.32 µM	1.38 µM
CCN(CC)Cc1ccc(Nc2nccc(-c3cnn4ncccc34)n2)cc1	0.00984 µM	> 25 µM	0.033 µM	0.11 µM	0.0226 µM	> 25 µM	0.0766 µM	9.99 µM	0.0209 µM	> 25 µM	0.0063 µM	0.0147 µM	0.0145 µM	0.607 µM	0.0825 µM	> 25 µM	0.0188 µM	0.0694 µM	0.0114 µM	> 8.73 µM
CC1(C)[C@@H](OC(N)=O)[C@H]2O[C@H]2[C@]2(CO)[C@H]3CC[C@]4(C)[C@@H](c5ccc(=O)oc5)[C@@H](Cl)C[C@]4(O)C3=CC[C@@H]12	0.00709 µM	0.0262 µM	0.00616 µM	0.0149 µM	0.0283 µM	0.103 µM	0.00545 µM	0.0157 µM	0.00821 µM	0.0342 µM	0.00716 µM	0.0829 µM	0.00457 µM	0.00892 µM	0.00661 µM	0.018 µM	0.00892 µM	0.0332 µM	0.00645 µM	0.0228 µM
COc1ccc2c(c1)C(=O)c1c-2c(N(C)C)nc2ccccc12	> 100 µM	> 100 µM	> 100 µM	> 100 µM	77 µM	> 100 µM	90.2 µM	> 100 µM	> 100 µM	> 100 µM	> 100 µM	> 100 µM	77.8 µM	> 100 µM	> 100 µM	> 100 µM	> 100 µM	> 100 µM	> 100 µM	> 100 µM
CC1=C(CO)C(=O)O[C@@H]([C@@H](C)[C@H]2CC[C@H]3[C@@H]4C[C@@H](O)[C@@]5(O)CC=CC(=O)[C@]5(C)[C@H]4CC[C@]23C)C1	–	55.5 µM	–	44.7 µM	–	> 100 µM	–	> 100 µM	–	> 100 µM	–	68.6 µM	–	> 100 µM	–	> 100 µM	–	> 100 µM	–	–
O=C(/C=C/c1ccc([N+](=O)[O-])cc1)c1ccc2c3c(cccc13)CC2	4.33 µM	25.7 µM	> 64.2 µM	> 100 µM	> 52.8 µM	> 100 µM	13.5 µM	> 100 µM	> 64.2 µM	> 100 µM	4.47 µM	21.3 µM	8.18 µM	> 100 µM	33.1 µM	> 91.3 µM	> 48.4 µM	> 100 µM	10.4 µM	> 62.6 µM
COc1ccc(C(=O)c2cc3c(N)c(C(=O)Nc4cccc5ccccc45)sc3nc2C)cc1	0.18 µM	> 18.9 µM	0.378 µM	> 50 µM	0.271 µM	> 50 µM	1.15 µM	> 50 µM	0.285 µM	> 50 µM	0.088 µM	> 50 µM	0.529 µM	> 50 µM	0.429 µM	> 50 µM	0.285 µM	> 50 µM	0.422 µM	> 50 µM
CC(C)(O)CC(=O)NCCn1ccc2ncnc(Nc3ccc(Oc4cccc(C(F)(F)F)c4)c(Cl)c3)c21	2.92 µM	> 10 µM	–	> 10 µM	4.53 µM	> 10 µM	5.22 µM	> 10 µM	2.55 µM	> 10 µM	1.87 µM	4.31 µM	3.5 µM	> 10 µM	0.284 µM	> 10 µM	2.96 µM	> 10 µM	1.12 µM	> 10 µM
C=C1C(=O)OC2/C=C(/C)C(OC(C)=O)CC(O)/C(C)=C\C(OC(=O)/C(C)=C\C)C12 (centres undefined)	–	35.6 µM	–	30.9 µM	–	> 100 µM	–	> 100 µM	–	> 100 µM	–	> 100 µM	–	> 100 µM	–	> 100 µM	–	> 100 µM	–	–
